# According to patent US20250326799A1, “AGENTS INDUCING VASCULARISATION” (Coegin Pharma AB, priority 2022, published 2025):
# “Also recorded” adds a separate entry of the source.
# Key:
# [1] = tested on: Human umbilical cord endothelial cells (HUVECs); experiment: BrdU cell proliferation in HUVECs; type: cell-based; conditions: for endothelial cell proliferation (DNA synthesis, uptake of BrdU, O.D. 450 nm): 10 nM, 100 nM, 1000 nM, compared to control; for proliferation of human umbilical vascular endothelial cells (BrdU uptake): addition of the peptide, increasing concentration; for stimulation of endothelial cell proliferation (BrdU) after NRP-1 knock-down: HUVECs treated with siRNA-NC or siRNA for NRP-1, then peptide
# Description: Cell proliferation was evaluated with BrdU Cell Proliferation Elisa Kit (Abcam, UK). After incubation at 37° C. overnight with respective complete medium, for NRP-1 knock down-relative experiments, HUVECs and HCASMCs on 96-well plates were transfected with siRNA/siRNA-NC directly; for test polypeptide stimulations, HUVECs and HCASMCs were starved with low-serum condition for additional 24 hours and 48 hours before treatments. At 32 hours after transfection or polypeptide stimulations, cells were cultured with BrdU reagent for another 16 hours to determine cell proliferation. Subsequent steps were performed as manufacturer's instructions and data were read by Wallac 1420 Victor 2 (Perkin Elmer, USA).
# For stimulation of endothelial cell proliferation, human umbilical cord endothelial cells were first treated with a scramble non-coding siRNA (NC) or siRNA for NRP-1, subsequently they were treated with FOL26 in concentrations of 10 nM, 100 nM, and 1000 nM, and DNA synthesis analyzed by measuring the uptake of BrdU.
# The impact of FOL-026 peptide on human umbilical vascular endothelial cells (HUVECs) proliferation (FIG. 18a) and apoptosis (FIG. 18c) induced with low-oxygen condition was determined by BrdU uptake (n=8-9 per group) and active caspase-3/-7 (n=7-10 per group) separately. The ROS level (FIG. 18b) activated by 50 ug/ml oxidized Low-density Lipoprotein (oxLDL) for 2 hours in cells pre-incubated with FOL-026 peptides was assessed using H2O2 measurement (n=4-8 per group). Representative pictures of endothelial migration into an in vitro scratch injury were shown (FIG. 19a) and the wound closure rate (FIG. 19b) in HUVECs stimulated with increasing concentration of FOL-026 peptide was quantified by image J software (n=8-9 per group). Scale bar=150 um. Data are presented as means±SEM and acquired from 3 to 4 independent replicate tests. *P<0.05, **P<0.01, ****P<0.0001 by one-way ANOVA and Dunnett's post-hoc test.
# The efficiency of small interfering RNA transfection for 48 hours in HUVECs was confirmed by qRT-PCR (n=4) (FIG. 22a). Effect of FOL-026 peptide stimulation on cell proliferation (FIG. 22b) and cell apoptosis at 0.1% oxygen (FIG. 22c) in HUVECs transfected with siRNA-NC or siNRP-1 was evaluated by BrdU incorporation (n=4-7 per group) and active caspase-3/-7 ((n=4-7 per group). Representative pictures of endothelial cells at 0 and 5 hours after scratch wounding are shown in 23a. The wound closure rate (FIG. 23b) of siRNA-NC/siNRP-1-transfected HUVECs stimulated with increasing concentration of FOL-026 peptide was quantified by image J software (n=9-12 per group). Scale bar=150 um. Data are presented as means±SEM and acquired from 3 to 4 independent replicate tests. *P<0.05, **P<0.01, ***P<0.001, ****P<0.0001 by Student's t test for A, two-way ANOVA followed with Sidak's and Dunnett's multiple comparisons test for B, C and E.
# The endothelial cell proliferation (FIG. 29a) was assessed with BrdU uptake in human umbilical vascular endothelial cells (HUVECs) stimulated with increasing concentration of FOL-005 peptide for 48 hours (n=7-10 per group).
# [2] = tested on: Human umbilical cord endothelial cells (HUVECs); experiment: Endothelial tube formation on Geltrex matrix; type: cell-based; conditions: for endothelial tube formation / endothelial tube formation after NRP-1 knock-down: HUVECs; for endothelial tube formation: 10 nM, 100 nM, 1000 nM, compared to control; for tube formation (total length, master segments, branching, segments length): HUVECs treated with peptide; for endothelial tube formation after NRP-1 knock-down: siRNA-NC or siNRP-1 group, then rising dose of peptide
# Description: Cells were transfected for 48 hours or performed with 0.5% supplement starvation for 24 hours on 6-well plates as described above and dissociated by Accutase (Gibco, USA) to obtain cell suspension. Geltrex reduced growth factor basement membrane matrix ((Invitrogen, CA, USA) was thawed at 4° C. overnight and added into a 96-well plate (50 µl/well) next. The coated 96-well plate was placed in the incubator more than 30 mins for further use and the cell suspension was seeded into it at a density of 1.5 x 10^4/well. For NRP-1 silencing experiments, cells were cultured with complete medium. For polypeptide treatment experiments, cells were stimulated with complete medium plus the different concentration of polypeptide. For NRP-1 rescued experiments, cells transfected with siRNA were cultured with complete medium and NRP-1 stimulations. After a 24-hour incubation, images were recorded by an inverted microscope (Nikon, Eclipse TE2000-U, Japan) and the sum length of master segments of vessels in each image were quantified using Angiogenesis Analyzer plug-in ImageJ software program (pixel/unit). Data were analyzed with photographs from 8-14 wells per condition.
# Human umbilical cord endothelial cells were first treated with a scramble non-coding siRNA (NC) or siRNA for NRP-1, subsequently treated with FOL26 in concentrations of 10 nM, 100 nM, and 1000 nM, and endothelial tube formation and the total master segemnts were measured using ImageJ. gene expression of PECAM-1 (CD31) analyzed.
# Quantified measurement of total length (FIG. 20b), total master segments length (FIG. 20c), total branching length (FIG. 20d) and total segments length (FIG. 20e) were performed to evaluate angiogenesis in vitro (n=7 per group for FIG. 29 b-e). The quantification of vessel density was assessed with CD31+ positive area (FIG. 21a, n=13 per group). Western blot analysis of phosphorylated AKT (pAKT-T308), AKT, phosphorylated ERK1/2 (p-ERK1/2) and ERK1/2 in endothelial cells stimulated with FOL-26 peptides for 48 hours (FIG. 21b). Quantification of phosphorylation intensities normalized to respective total expressions (FIG. 21c-d, n=3 per group).
# Tube formation with rising dose of FOL-026 peptide treatment in siRNA-NC or siNRP-1 group (FIG. 24a) and total length (FIG. 24b), total master segments length (FIG. 24c), total branching length (FIG. 24d) and total segments length (FIG. 24e) was calculated using Angiogenesis Analyzer plug-in ImageJ (n=7-12 per group). Scale bar=150 um. Data are presented as means±SEM and acquired from 3 to 4 independent replicate tests. *P<0.05, **P<0.01, ***P<0.001, ****P<0.0001 by two-way ANOVA followed with Sidak's and Dunnett's multiple comparisons test.
# Quantified measurement of total master segments length FIG. 31b was used to evaluate angiogenesis in vitro (n=7 per group). Scale bar=150 um.
Sequence,"endothelial cell proliferation (DNA synthesis, uptake of BrdU, O.D. 450 nm) ([1]; HUVECs)",endothelial tube formation [2],proliferation of human umbilical vascular endothelial cells (BrdU uptake) ([1]; HUVECs),"tube formation (total length, master segments, branching, segments length) [2]",stimulation of endothelial cell proliferation (BrdU) after NRP-1 knock-down [1],stimulation of endothelial cell proliferation (BrdU) after NRP-1 knock-down ([1]; listed as FOL26),"endothelial cell proliferation (DNA synthesis, uptake of BrdU, O.D. 450 nm) ([1]; HUVECs, listed as FOL26)","BrdU uptake after siRNA for NRP-1 ([1]; HUVECs, 10 and 100 nM)",endothelial tube formation after NRP-1 knock-down [2],endothelial tube formation after NRP-1 knock-down ([2]; listed as FOL26),endothelial tube formation ([2]; listed as FOL26)
AEIDSIELSYGIK [FOL56],significant increase in proliferation; also recorded: increases proliferation at all concentrations,significantly increased tube formation; also recorded: increased tube formation at all concentrations,–,–,–,–,–,–,–,–,–
VDTYDGDISVVYGLR [FOL-005],–,–,increases,increases the tube formation,–,–,–,–,–,–,–
VDTYDGGISVVYGLR [FOL-026],–,–,increases,positive effect,blocks the effect,NRP-1 dependent,significant increase in proliferation; also recorded: increase in O.D. (450 nm),reduction,induce tube formation,increased tube formation compared to control in a NRP-1 dependent way,significantly increased tube formation; also recorded: increased tube formation compared to control
